Reference: publication PMC9090415, “Discovery of small molecule inhibitors of Plasmodium falciparum apicoplast DNA polymerase” (Journal of Enzyme Inhibition and Medicinal Chemistry, 2022)

Target: P. falciparum apicoplast DNA polymerase (Pf-apPOL) (Plasmodium falciparum, UniProt Q8ILY1)
Assay: Fluorescence-based high-throughput DNA polymerase assay (molecular beacon), primary screen and dose-response
Type: biochemical
Procedure: The HT assay employs a molecular beacon, a stem-loop DNA template with a Cy3 dye and the Black Hole Quencher on the 3′ and 5′ ends of the DNA, respectively. Pf-apPOL concentration is based on a calculated absorptivity of ε280 = 56750 M^−1 cm^−1. Reactions were carried out at 25 °C, using Corning 3575 […] (well-volume, 20 µL). Assays testing for compound inhibition composed of reaction buffer (pH 7.9 in 50 mM potassium acetate, 20 mM Tris-acetate and 10 mM magnesium acetate), Pf-apPOL (20 nM), DNA substrate (20 nM), dNTPs (6 µM), and compound (10 µM in DMSO). The DNA and nucleotide substrates (dNTPs) were at concentrations of 20 nM and 6 µM, respectively, in the assay. Pf-apPOL was incubated in the reaction buffer with dNTPs and the compound of interest (10 µM, in the assay) at 25 °C for 10 min. The DNA substrate was then added and the reaction was allowed to proceed for 90 min at 25 °C.
Each assay plate contained 16 negative controls (no Pf-apPOL, DMSO present) and 16 positive controls (Pf-apPOL present, no DMSO). The fluorescence of each well was determined using a BioTek Synergy Neo fluorescence plate reader using excitation and emission wavelengths of 555 and 570 nm, respectively.
In the above, Min is the average of fluorescence emission of the negative controls (substrate only), Max the average fluorescence emission from the positive controls (enzyme + substrate), and Test the emission from the assays in the presence of compounds (enzyme + compound + substrates). […] […] The IC50 of each compound was determined using Equation (2): (2) IC50= Vmax/(1+ (I/IC50)^n)
In the above, n measures cooperativity, with n > 1 indicating synergistic binding of more than a single molecule of the compound.
To identify apPOL inhibitors we utilised our previously developed high-throughput DNA polymerase assay. The HT assay is based on a molecular beacon DNA template that forms a stem-loop with a Cy3 dye and the Black Hole Quencher on the 3′ and 5′ ends of the DNA, respectively. DNA polymerase activity extends an annealed primer through the stem region, displacing the fluorophore from the quencher, thereby increasing its fluorescence (Figure 1(A)). The assay accurately recapitulates the kinetic behaviour of apPOL, as measured through more conventional low-throughput gel-based assays. The Z′ factor for the assay described here was 0.9 across all plates (data not shown).
Figure 1. High-throughput screening. (A) The fluorescent-based DNA polymerase assay used to screen the compound libraries. The DNA template strand is a hairpin loop with a primer annealed to the loop. The 3’ end of the primer is 11 bases away from the 6 bp duplex. Strand displacement activity of the DNA polymerase separates the Cy3 dye from the Black hole quencher leading to an increase in fluorescent signal. (B) The high-throughput assay workflow. The DNA polymerase is incubated with […] compound for 10 min prior to addition of the hairpin substrate. The reaction is quenched at 3 different time points and the fluorescent signal is measured and % inhibition is determined using the provided equation.

[1] = supplemental file 2, sheet IC50 nontoxic compounds; Pf-apPOL

Chain of P. falciparum apicoplast DNA polymerase (Pf-apPOL) (Q8ILY1 entry or part of it): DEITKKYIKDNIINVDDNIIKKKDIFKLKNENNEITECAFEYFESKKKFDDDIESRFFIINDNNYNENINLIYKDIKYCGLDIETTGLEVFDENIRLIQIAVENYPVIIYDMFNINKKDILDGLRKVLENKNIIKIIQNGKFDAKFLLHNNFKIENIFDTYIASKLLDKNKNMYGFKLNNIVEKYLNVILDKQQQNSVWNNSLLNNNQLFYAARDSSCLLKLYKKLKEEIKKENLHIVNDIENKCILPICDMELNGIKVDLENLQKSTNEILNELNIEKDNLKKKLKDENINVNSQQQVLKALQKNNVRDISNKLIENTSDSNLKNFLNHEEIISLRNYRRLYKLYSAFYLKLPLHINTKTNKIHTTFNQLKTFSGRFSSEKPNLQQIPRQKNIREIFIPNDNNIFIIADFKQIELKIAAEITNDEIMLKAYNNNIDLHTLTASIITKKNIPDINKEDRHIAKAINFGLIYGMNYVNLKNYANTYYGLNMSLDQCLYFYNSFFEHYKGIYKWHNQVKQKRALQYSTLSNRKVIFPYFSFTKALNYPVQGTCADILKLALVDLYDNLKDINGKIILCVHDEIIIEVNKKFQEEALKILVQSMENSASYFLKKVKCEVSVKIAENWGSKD

## CCOC(=O)C(NCc1ccco1)(NC(=O)c1ccco1)C(F)(F)F (stereo not shown) [KU0276119]
186 hits, value of the hit list (primary screen); unit not given; 90 min, 10 µM
  DNA Pol: 69
DRC-1; 10'; concentration 2.5
  % inhibition Apo pol 10': -0.8683%
DRC-1; 10'; concentration 5
  % inhibition Apo pol 10': 4.257%
DRC-1; 10'; concentration 10
  % inhibition Apo pol 10': 15.6994%
DRC-1; 10'; concentration 20
  % inhibition Apo pol 10': 30.4809%
DRC-1; 10'; concentration 40
  % inhibition Apo pol 10': 51.156%
DRC-1; 10'; concentration 80
  % inhibition Apo pol 10': 69.3233%
DRC-1; 90'; concentration 2.5
  % inhibition Apol 90': -1.328%
DRC-1; 90'; concentration 5
  % inhibition Apol 90': -2.247%
DRC-1; 90'; concentration 10
  % inhibition Apol 90': 3.449%
DRC-1; 90'; concentration 20
  % inhibition Apol 90': 14.6625%
DRC-1; 90'; concentration 40
  % inhibition Apol 90': 31.3437%
DRC-1; 90'; concentration 80
  % inhibition Apol 90': 52.4823%
DRC-1; 180'; concentration 2.5
  % inhibition apPOL 180': -2.149%
DRC-1; 180'; concentration 5
  % inhibition apPOL 180': -6.365%
DRC-1; 180'; concentration 10
  % inhibition apPOL 180': -5.1582%
DRC-1; 180'; concentration 20
  % inhibition apPOL 180': 2.395%
DRC-1; 180'; concentration 40
  % inhibition apPOL 180': 15.7005%
DRC-1; 180'; concentration 80
  % inhibition apPOL 180': 35.8359%
DRC-2, 5', concentration 2.5
  % inhibition Apo pol 5': 3%
DRC-2, 5', concentration 5
  % inhibition Apo pol 5': 8.49%
DRC-2, 5', concentration 10
  % inhibition Apo pol 5': 20%
DRC-2, 5', concentration 20
  % inhibition Apo pol 5': 31%
DRC-2, 5', concentration 40
  % inhibition Apo pol 5': 44%
DRC-2, 5', concentration 80
  % inhibition Apo pol 5': 52%
DRC-2, 40', concentration 2.5
  % inhibition Apol 40': 3%
DRC-2, 40', concentration 5
  % inhibition Apol 40': 5%
DRC-2, 40', concentration 10
  % inhibition Apol 40': 12%
DRC-2, 40', concentration 20
  % inhibition Apol 40': 24%
DRC-2, 40', concentration 40
  % inhibition Apol 40': 41%
DRC-2, 40', concentration 80
  % inhibition Apol 40': 57%
DRC-2, 90', concentration 2.5
  % inhibition ApPOL 90': 1.27%
DRC-2, 90', concentration 5
  % inhibition ApPOL 90': 0%
DRC-2, 90', concentration 10
  % inhibition ApPOL 90': 7%
DRC-2, 90', concentration 20
  % inhibition ApPOL 90': 17%
DRC-2, 90', concentration 40
  % inhibition ApPOL 90': 36%
DRC-2, 90', concentration 80
  % inhibition ApPOL 90': 54%
DRC-2, 180', concentration 2.5
  % inhibition apPOL 180': -2.49%
DRC-2, 180', concentration 5
  % inhibition apPOL 180': -7%
DRC-2, 180', concentration 10
  % inhibition apPOL 180': -2%
DRC-2, 180', concentration 20
  % inhibition apPOL 180': 2.7%
DRC-2, 180', concentration 40
  % inhibition apPOL 180': 21%
DRC-2, 180', concentration 80
  % inhibition apPOL 180': 45%
DRC-2; 5'; concentration 2.5
  % inhibition Apo pol 5': 3%
DRC-2; 40'; concentration 2.5
  % inhibition Apol 40': 3%
Primary screen value, 'DNA Pol' only; 90 min, 10 µM
  DNA Pol: 69

## Oc1cccnc1/N=C/c1cc(I)cc(I)c1O [KU0073720]
DRC-1; concentration 2.5; 10'
  % inhibition Apo pol 10': 24.1498%
DRC-1; concentration 2.5; 90'
  % inhibition Apol 90': 12.6325%
DRC-1; concentration 2.5; 180'
  % inhibition apPOL 180': 7.269%
DRC-1; concentration 5; 10'
  % inhibition Apo pol 10': 35.1256%
DRC-1; concentration 5; 90'
  % inhibition Apol 90': 18.9546%
DRC-1; concentration 5; 180'
  % inhibition apPOL 180': 7.696%
DRC-1; concentration 10; 10'
  % inhibition Apo pol 10': 54.1581%
DRC-1; concentration 10; 90'
  % inhibition Apol 90': 35.5541%
DRC-1; concentration 10; 180'
  % inhibition apPOL 180': 22.0989%
DRC-1; concentration 20; 10'
  % inhibition Apo pol 10': 82.6757%
DRC-1; concentration 20; 90'
  % inhibition Apol 90': 72.4882%
DRC-1; concentration 20; 180'
  % inhibition apPOL 180': 62.032%
DRC-1; concentration 40; 10'
  % inhibition Apo pol 10': 88.0061%
DRC-1; concentration 40; 90'
  % inhibition Apol 90': 85.8588%
DRC-1; concentration 40; 180'
  % inhibition apPOL 180': 82.0572%
DRC-1; concentration 80 (unit not given); 10'
  % inhibition Apo pol 10': 86.1265%
DRC-1; concentration 80; 90'
  % inhibition Apol 90': 87.3428%
DRC-1; concentration 80; 180'
  % inhibition apPOL 180': 87.5745%
DRC-2; 5'; concentration 40
  % inhibition Apo pol 5': 63%
DRC-2; 40'; concentration 20
  % inhibition Apol 40': 63%
DRC-2; concentration 2.5; 5'
  % inhibition Apo pol 5': 26%
DRC-2; concentration 2.5; 40'
  % inhibition Apol 40': 24%
DRC-2; concentration 2.5; 90'
  % inhibition ApPOL 90': 22%
DRC-2; concentration 2.5; 180'
  % inhibition apPOL 180': 15%
DRC-2; concentration 5; 5'
  % inhibition Apo pol 5': 36%
DRC-2; concentration 5; 40'
  % inhibition Apol 40': 33%
DRC-2; concentration 5; 90'
  % inhibition ApPOL 90': 28%
DRC-2; concentration 5; 180'
  % inhibition apPOL 180': 17%
DRC-2; concentration 10; 5'
  % inhibition Apo pol 5': 51%
DRC-2; concentration 10; 40'
  % inhibition Apol 40': 52%
DRC-2; concentration 10; 90'
  % inhibition ApPOL 90': 49%
DRC-2; concentration 10; 180'
  % inhibition apPOL 180': 37%
DRC-2; concentration 20; 5'
  % inhibition Apo pol 5': 57%
DRC-2; concentration 20; 40'
  % inhibition Apol 40': 63%
DRC-2; concentration 20; 90'
  % inhibition ApPOL 90': 62%
DRC-2; concentration 20; 180'
  % inhibition apPOL 180': 54%
DRC-2; concentration 40; 5'
  % inhibition Apo pol 5': 63%
DRC-2; concentration 40; 40'
  % inhibition Apol 40': 73%
DRC-2; concentration 40; 90'
  % inhibition ApPOL 90': 75%
DRC-2; concentration 40; 180'
  % inhibition apPOL 180': 74%
DRC-2; concentration 80; 5'
  % inhibition Apo pol 5': 58%
DRC-2; concentration 80; 40'
  % inhibition Apol 40': 72%
DRC-2; concentration 80; 90'
  % inhibition ApPOL 90': 76%
DRC-2; concentration 80; 180'
  % inhibition apPOL 180': 77%
Primary screen value of the 186 hits; unit not given; 90 min, 10 µM
  DNA Pol: 46
Primary screen value; head prints only 'DNA Pol'; 90 min, 10 µM
  DNA Pol: 46

## N#CC(C#N)=C1SCN(c2cccc(Cl)c2)CS1 [Molecule 29]
[1]
  IC50: 11.9 µM

## O=C(Cn1ccc2c(=O)[nH]ccc21)Nc1cccc(Cl)c1 [Molecule 23]
[1]
  IC50: 9.11 µM
